We go through 19 molecules from ChEMBL document CHEMBL3991601, “The target landscape of clinical kinase drugs” (Science, 2017).

Calls of active or inactive are those of the source. Cut-off read from the data, not from the text of the source: actives have a measured Kd and inactives only a lower limit.

In assay [1] the target is T1, Cyclin-G-associated kinase (Homo sapiens, UniProt O14976).
T1 sequence (O14976 whole entry): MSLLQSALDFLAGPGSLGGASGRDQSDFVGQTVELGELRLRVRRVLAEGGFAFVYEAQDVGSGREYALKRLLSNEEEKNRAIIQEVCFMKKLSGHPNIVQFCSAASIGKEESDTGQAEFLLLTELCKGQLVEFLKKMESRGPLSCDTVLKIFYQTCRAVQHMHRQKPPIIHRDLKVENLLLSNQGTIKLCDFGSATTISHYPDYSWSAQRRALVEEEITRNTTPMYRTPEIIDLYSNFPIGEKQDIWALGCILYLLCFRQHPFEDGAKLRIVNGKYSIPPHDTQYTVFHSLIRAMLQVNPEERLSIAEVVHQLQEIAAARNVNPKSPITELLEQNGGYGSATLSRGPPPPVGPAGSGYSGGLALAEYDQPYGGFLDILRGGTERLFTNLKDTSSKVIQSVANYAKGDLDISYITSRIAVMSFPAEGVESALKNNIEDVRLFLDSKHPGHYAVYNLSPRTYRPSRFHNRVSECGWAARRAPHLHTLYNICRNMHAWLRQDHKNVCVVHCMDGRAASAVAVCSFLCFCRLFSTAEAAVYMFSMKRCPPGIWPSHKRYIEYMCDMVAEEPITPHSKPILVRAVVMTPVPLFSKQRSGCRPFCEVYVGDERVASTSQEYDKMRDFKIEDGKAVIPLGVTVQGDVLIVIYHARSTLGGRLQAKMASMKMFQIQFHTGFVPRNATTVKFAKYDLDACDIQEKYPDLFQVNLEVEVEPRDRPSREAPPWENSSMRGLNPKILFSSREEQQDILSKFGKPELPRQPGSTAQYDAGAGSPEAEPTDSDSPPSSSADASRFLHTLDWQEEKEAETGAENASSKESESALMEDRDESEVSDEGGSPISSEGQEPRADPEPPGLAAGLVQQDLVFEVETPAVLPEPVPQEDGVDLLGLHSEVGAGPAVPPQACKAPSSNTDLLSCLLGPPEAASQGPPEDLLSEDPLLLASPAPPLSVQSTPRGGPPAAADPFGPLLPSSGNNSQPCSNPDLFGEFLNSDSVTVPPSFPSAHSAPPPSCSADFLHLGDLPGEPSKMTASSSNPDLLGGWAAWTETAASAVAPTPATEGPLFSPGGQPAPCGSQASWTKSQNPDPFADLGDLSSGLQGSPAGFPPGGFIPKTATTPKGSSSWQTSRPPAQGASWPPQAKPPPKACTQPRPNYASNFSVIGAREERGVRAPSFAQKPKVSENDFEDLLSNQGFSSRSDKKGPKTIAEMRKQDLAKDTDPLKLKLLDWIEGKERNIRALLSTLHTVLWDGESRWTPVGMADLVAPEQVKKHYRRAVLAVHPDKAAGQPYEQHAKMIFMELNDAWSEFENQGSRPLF

For assay [2], the target named is Aurora kinase B (Homo sapiens, UniProt Q96GD4).
Sequence of Aurora kinase B (Q96GD4 whole entry): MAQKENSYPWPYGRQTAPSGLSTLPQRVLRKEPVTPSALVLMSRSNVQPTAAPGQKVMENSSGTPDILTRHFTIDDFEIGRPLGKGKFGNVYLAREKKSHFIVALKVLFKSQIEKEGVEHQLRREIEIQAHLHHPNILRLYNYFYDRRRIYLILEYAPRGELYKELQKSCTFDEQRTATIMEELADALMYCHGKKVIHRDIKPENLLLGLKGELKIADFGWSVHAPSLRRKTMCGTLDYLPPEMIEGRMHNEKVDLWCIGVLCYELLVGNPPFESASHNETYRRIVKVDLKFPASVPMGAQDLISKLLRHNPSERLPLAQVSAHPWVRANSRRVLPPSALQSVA
Assay [3] addresses T2, Serine/threonine-protein kinase ULK1 (Homo sapiens, UniProt O75385).
T2 sequence (O75385 whole entry): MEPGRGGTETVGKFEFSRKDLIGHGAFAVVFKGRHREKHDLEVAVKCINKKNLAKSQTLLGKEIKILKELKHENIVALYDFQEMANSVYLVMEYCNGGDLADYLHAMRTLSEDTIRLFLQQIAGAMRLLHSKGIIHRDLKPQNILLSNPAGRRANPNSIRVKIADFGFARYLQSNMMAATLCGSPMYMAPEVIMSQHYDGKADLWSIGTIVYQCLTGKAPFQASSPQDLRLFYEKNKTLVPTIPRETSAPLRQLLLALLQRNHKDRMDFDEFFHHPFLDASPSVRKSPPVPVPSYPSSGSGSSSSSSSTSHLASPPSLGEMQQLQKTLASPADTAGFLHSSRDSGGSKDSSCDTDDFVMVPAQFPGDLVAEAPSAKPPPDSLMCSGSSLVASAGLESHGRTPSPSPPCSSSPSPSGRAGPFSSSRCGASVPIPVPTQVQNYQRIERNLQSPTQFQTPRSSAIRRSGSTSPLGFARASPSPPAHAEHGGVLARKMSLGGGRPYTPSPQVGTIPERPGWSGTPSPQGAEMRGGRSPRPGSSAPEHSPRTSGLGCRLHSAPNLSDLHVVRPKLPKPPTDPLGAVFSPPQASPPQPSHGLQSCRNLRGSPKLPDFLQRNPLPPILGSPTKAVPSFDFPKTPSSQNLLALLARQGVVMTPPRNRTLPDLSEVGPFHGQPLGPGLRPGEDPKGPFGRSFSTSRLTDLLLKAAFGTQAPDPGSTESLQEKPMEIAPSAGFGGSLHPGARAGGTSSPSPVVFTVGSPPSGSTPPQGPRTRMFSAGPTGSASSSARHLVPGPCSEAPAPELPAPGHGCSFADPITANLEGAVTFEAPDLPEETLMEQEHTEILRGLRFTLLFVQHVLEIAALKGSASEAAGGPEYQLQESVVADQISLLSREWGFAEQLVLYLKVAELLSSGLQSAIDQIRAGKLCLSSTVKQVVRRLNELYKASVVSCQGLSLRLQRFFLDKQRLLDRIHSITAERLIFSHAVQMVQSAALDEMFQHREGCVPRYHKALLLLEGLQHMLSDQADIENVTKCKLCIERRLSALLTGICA

Assay [4] deals with T3, Mitogen-activated protein kinase kinase kinase 2 (Homo sapiens, UniProt Q9Y2U5).
T3 sequence (Q9Y2U5 whole entry): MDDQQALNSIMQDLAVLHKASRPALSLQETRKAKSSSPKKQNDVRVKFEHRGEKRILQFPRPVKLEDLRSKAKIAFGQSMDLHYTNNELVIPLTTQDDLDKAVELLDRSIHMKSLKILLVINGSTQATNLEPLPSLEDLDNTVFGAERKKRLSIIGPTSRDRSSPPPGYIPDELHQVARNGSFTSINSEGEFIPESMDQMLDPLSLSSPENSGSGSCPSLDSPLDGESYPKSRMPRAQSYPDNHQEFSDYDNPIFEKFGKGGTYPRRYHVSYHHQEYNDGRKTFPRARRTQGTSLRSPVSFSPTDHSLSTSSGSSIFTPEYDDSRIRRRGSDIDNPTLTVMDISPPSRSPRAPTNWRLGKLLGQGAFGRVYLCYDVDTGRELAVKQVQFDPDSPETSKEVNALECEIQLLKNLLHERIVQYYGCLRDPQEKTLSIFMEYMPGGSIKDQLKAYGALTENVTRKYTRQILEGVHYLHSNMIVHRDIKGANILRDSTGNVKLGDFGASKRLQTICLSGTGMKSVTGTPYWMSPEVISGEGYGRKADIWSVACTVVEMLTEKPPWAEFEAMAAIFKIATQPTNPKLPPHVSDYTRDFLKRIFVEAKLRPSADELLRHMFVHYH
Note: in the data inactive means no Kd found up to 30 µM.

For `CC(=O)Nc1cccc(-n2c(=O)n(C3CC3)c(=O)c3c(Nc4ccc(I)cc4F)n(C)c(=O)c(C)c32)c1` [TRAMETINIB], the Kd in assay [1], in assay [2], in assay [3] and in assay [4] was > 30 µM (inactive) each time.
On to `COC(=O)N[C@@H](C)CNc1nccc(-c2cn(C(C)C)nc2-c2cc(Cl)cc(NS(C)(=O)=O)c2F)n1` [ENCORAFENIB], for which the Kd in assay [1], in assay [2], in assay [3] and in assay [4] was > 30 µM (inactive) throughout.
For the molecule `CNC(=O)c1ccc(-c2cnc3ncc(Cc4ccc5ncccc5c4)n3n2)cc1F` [CAPMATINIB], the Kd in assay [1], in assay [2], in assay [3] and in assay [4] was > 30 µM (inactive) throughout.
In the case of `COC(=O)[C@@]1(O)C[C@H]2O[C@]1(C)n1c3ccccc3c3c4c(c5c6ccccc6n2c5c31)C(=O)NC4` [K-252A], the Kd in assay [1] was 1.27 µM (active); in assay [2] it was 0.353 µM (active); in assay [3] it was > 30 µM (inactive); in assay [4], 4.12 µM (active).
For `CNS(=O)(=O)Nc1nccc(Cc2c(C)c3ccc(Oc4ncccn4)cc3oc2=O)c1F` [AVUTOMETINIB] the same measures were > 30 µM (inactive), > 30 µM (inactive), > 30 µM (inactive) and > 30 µM (inactive).
For `COc1ccc(-c2ccc3c(N4CCOC[C@@H]4C)nc(N4CCOC[C@@H]4C)nc3n2)cc1CO` [AZD-8055] the same measures were > 30 µM (inactive), > 30 µM (inactive), > 30 µM (inactive) and > 30 µM (inactive).
For `O=C1NC(=O)/C(=C/c2ccc3nccc(-c4ccncc4)c3c2)S1` [GSK-1059615] the same measures were 7.44 µM (active), > 30 µM (inactive), > 30 µM (inactive) and > 30 µM (inactive).
As to `C[C@@H](Nc1cc(F)cc(F)c1)c1cc(C(=O)N(C)C)cc2c(=O)cc(N3CCOCC3)oc12` [AZD-8186], the Kd in assay [1], in assay [2], in assay [3] and in assay [4] was > 30 µM (inactive) each time.
As for `Cc1c(F)cc(C(=O)NC2CC2)cc1-c1ccc(C(=O)NCC(C)(C)C)cn1` [LOSMAPIMOD], the Kd in assay [1], in assay [2], in assay [3] and in assay [4] was > 30 µM (inactive) each time.
In the case of `COc1cc(CCc2cc(NC(=O)c3ccc(N4C[C@@H](C)N[C@@H](C)C4)cc3)n[nH]2)cc(OC)c1` [AZD-4547], the Kd is > 30 µM (inactive) in assay [1], 1.67 µM in assay [2], > 30 µM (inactive) in assay [3] and > 30 µM (inactive) in assay [4].
As for `Cc1cc2c(F)c(Oc3ncnn4cc(OC[C@@H](C)OC(=O)[C@H](C)N)c(C)c34)ccc2[nH]1` [BRIVANIB ALANINATE], the Kd in assay [1], in assay [2], in assay [3] and in assay [4] was > 30 µM (inactive) throughout.
Consider `C1=C/COCc2cc(ccc2OCCN2CCCC2)Nc2nccc(n2)-c2cccc(c2)COC/1` [PACRITINIB], for which the Kd in assay [1] is 0.674 µM (active); in assay [2], 0.641 µM (active); in assay [3], > 30 µM (inactive); in assay [4], > 30 µM (inactive).
Consider `C[C@@H]1CN(Cc2ccc(F)cc2)[C@@H](C)CN1C(=O)c1cc2c(C(=O)C(=O)N(C)C)cn(C)c2cc1Cl` [TALMAPIMOD], for which the Kd in assay [1], in assay [2], in assay [3] and in assay [4] was > 30 µM (inactive) in each case.
As to `CN1CCC(COc2cnc(-c3cccc(Cn4nc(-c5cccc(C#N)c5)ccc4=O)c3)nc2)CC1` [TEPOTINIB], the Kd in assay [1], in assay [2], in assay [3] and in assay [4] was > 30 µM (inactive) throughout.
As for `C[C@@H](c1ccc2nccn2c1)n1nnc2ncc(-c3cnn(C)c3)nc21` [SAVOLITINIB], the Kd in assay [1], in assay [2], in assay [3] and in assay [4] was > 30 µM (inactive) each time.
On to `N[C@@H]1CCCN(c2c(/C=C3\SC(=O)NC3=O)cccc2-c2ccccc2)C1`, for which the Kd in assay [1], in assay [2], in assay [3] and in assay [4] was > 30 µM (inactive) each time.
On to `COc1cc(N2CCC(N3CCN(C)CC3)CC2)ccc1Nc1ncnc(Nc2ccccc2S(=O)(=O)C(C)C)n1` [ASP-3026], for which the Kd in assay [1] was 2.82 µM (active); in assay [2] it was 0.1 µM (active); in assay [3], > 30 µM (inactive); in assay [4], > 30 µM (inactive).
With `Cc1cc([C@@H](C)Nc2ccccc2C(=O)O)c2nc(N3CCOCC3)cc(=O)n2c1` [AZD-6482], the Kd in assay [1], in assay [2], in assay [3] and in assay [4] was > 30 µM (inactive) each time.
Consider `CN1CCC(CNc2ccc3ncc(-c4cccc(OC(F)(F)F)c4)n3n2)CC1` [SGI-1776], for which the Kd in assay [1] was 8.63 µM (active); in assay [2], > 30 µM (inactive); in assay [3], > 30 µM (inactive); in assay [4], > 30 µM (inactive).
